Data on eleven compounds can be found in PubChem BioAssay AID342 (DTP/NCI, 2004).

In the test the test system is Swiss mice, Sarcoma 180 sc, mean tumor weight T/C. In words: NCI In Vivo Anticancer Drug Screen. Data for tumor model Sarcoma 180 (subcutaneous) in Swiss mice. Conditions: endpoint: mean tumor weight, higher = larger tumour. In outline:
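Antitumor activity is assessed in mice with transplantable tumors. Treated (T) and vehicle control (C) groups are compared on survival or tumor size.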

The term T/C denotes the ratio of treated to control. Take `CCCCOP(=S)(N1CC1)N1CC1`: the T/C is 97 % of control (dose: 0.25 mg/kg/injection, schedule: Q01DX007 (ip), vehicle: saline); 73 % of control (dose: 0.5 mg/kg/injection, schedule: Q01DX007 (ip), vehicle: saline); 124 % of control (dose: 0.75 mg/kg/injection, schedule: Q01DX007 (ip), vehicle: other); 86 % of control (dose: 0.75 mg/kg/injection, schedule: Q01DX007 (ip), vehicle: saline); 70 % of control (dose: 1.0 mg/kg/injection, schedule: Q01DX007 (ip), vehicle: saline); 79 % of control (dose: 1.5 mg/kg/injection, schedule: Q01DX007 (ip), vehicle: other). The T/C (dose: 1.5 mg/kg/injection, schedule: Q01DX007 (ip), vehicle: saline) was 70 % of control; the T/C (dose: 1.8 mg/kg/injection, schedule: Q01DX007 (ip), vehicle: saline) was 33 % of control; the T/C (dose: 2.8 mg/kg/injection, schedule: Q01DX007 (ip), vehicle: saline) is 9 % of control; the T/C (dose: 3.0 mg/kg/injection, schedule: Q01DX007 (ip), vehicle: other) was 87 % of control; the T/C (dose: 3.0 mg/kg/injection, schedule: Q01DX007 (ip), vehicle: saline) is 57 % of control; the T/C (dose: 4.3 mg/kg/injection, schedule: Q01DX007 (ip), vehicle: saline) was 11 % of control. Also, the T/C is 91 % of control (dose: 6.0 mg/kg/injection, schedule: Q01DX007 (ip), vehicle: other); 31 % of control (dose: 6.0 mg/kg/injection, schedule: Q01DX007 (ip), vehicle: saline); 3 % of control (dose: 6.6 mg/kg/injection, schedule: Q01DX007 (ip), vehicle: saline); 28 % of control (dose: 7.5 mg/kg/injection, schedule: Q#A X014 (ip), vehicle: saline); 103 % of control (dose: 10.0 mg/kg/injection, schedule: Q01DX007 (ip), vehicle: other); 17 % of control (dose: 10.0 mg/kg/injection, schedule: Q01DX007 (ip), vehicle: saline). Further, the T/C by setting is: (dose: 10.0 mg/kg/injection, schedule: Q## X000 (ip), vehicle: saline) 17 % of control; (dose: 15.0 mg/kg/injection, schedule: Q## X000 (ip), vehicle: saline) 2 % of control; (dose: 22.5 mg/kg/injection, schedule: Q## X000 (ip), vehicle: saline) 3 % of control.

As for `O=C(CCCl)N1CCN(C(=O)CCCl)CC1`, the T/C by setting is: (dose: 110.0 mg/kg/injection, schedule: Q#A X014 (ip), vehicle: methylcellulose (MC)) 66 % of control; (dose: 167.5 mg/kg/injection, schedule: Q#A X014 (ip), vehicle: methylcellulose (MC)) 54 % of control.

`CNC(C)C(O)c1ccccc1` (stereo not given): the T/C is, setting by setting: (dose: 133.0 mg/kg/injection, schedule: Q01DX007 (ip), vehicle: saline) 78 % of control; (dose: 200.0 mg/kg/injection, schedule: Q01DX007 (ip), vehicle: saline) 60 % of control.

Regarding `CC(C)COC(=O)C1(N)CCCC1`, the T/C reads like this: (dose: 90.0 mg/kg/injection, schedule: Q01DX007 (ip), vehicle: carboxymethylcellulose (CMC)) 80 % of control; (dose: 135.0 mg/kg/injection, schedule: Q01DX007 (ip), vehicle: carboxymethylcellulose (CMC)) 44 % of control; (dose: 188.0 mg/kg/injection, schedule: Q01DX007 (ip), vehicle: saline) 14 % of control; (dose: 202.0 mg/kg/injection, schedule: Q01DX007 (ip), vehicle: carboxymethylcellulose (CMC)) 49 % of control; (dose: 303.0 mg/kg/injection, schedule: Q01DX007 (ip), vehicle: carboxymethylcellulose (CMC)) 18 % of control.

For the compound `O=C(Nc1ccc(N=Nc2ccc(S(=O)(=O)O)cc2)cc1)c1ccc(N=Nc2c(O)ccc3cc(S(=O)(=O)O)ccc23)cc1`, the T/C is, setting by setting: (dose: 12.5 mg/kg/injection, schedule: Q01DX007 (ip), vehicle: water) 103 % of control; (dose: 25.0 mg/kg/injection, schedule: Q01DX007 (ip), vehicle: water) 84 % of control; (dose: 50.0 mg/kg/injection, schedule: Q01DX007 (ip), vehicle: water) 67 % of control.

For the compound `O=[As]O`, the T/C is, setting by setting: (dose: 1.67 mg/kg/injection, schedule: Q01DX007 (ip), vehicle: carboxymethylcellulose (CMC)) 90 % of control; (dose: 3.12 mg/kg/injection, schedule: Q#A X014 (ip), vehicle: carboxymethylcellulose (CMC)) 121 % of control; (dose: 3.33 mg/kg/injection, schedule: Q01DX007 (ip), vehicle: carboxymethylcellulose (CMC)) 78 % of control; (dose: 3.37 mg/kg/injection, schedule: Q01DX007 (ip), vehicle: carboxymethylcellulose (CMC)) 98 % of control; (dose: 5.0 mg/kg/injection, schedule: Q01DX007 (ip), vehicle: carboxymethylcellulose (CMC)) 66 % of control; (dose: 6.25 mg/kg/injection, schedule: Q#A X014 (ip), vehicle: carboxymethylcellulose (CMC)) 99 % of control. For the same compound, the T/C is 85 % of control (dose: 6.65 mg/kg/injection, schedule: Q01DX007 (ip), vehicle: carboxymethylcellulose (CMC)); 90 % of control (dose: 7.0 mg/kg/injection, schedule: Q01DX007 (ip), vehicle: carboxymethylcellulose (CMC)); 83 % of control (dose: 9.0 mg/kg/injection, schedule: Q01DX007 (ip), vehicle: carboxymethylcellulose (CMC)); 64 % of control (dose: 11.0 mg/kg/injection, schedule: Q01DX007 (ip), vehicle: carboxymethylcellulose (CMC)).

In the case of `CCC(=O)O[C@H]1CC[C@H]2[C@@H]3CC[C@H]4CC(=O)[C@H](C)C[C@]4(C)[C@H]3CC[C@]12C`, the T/C is, setting by setting: (dose: 125.0 mg/kg/injection, schedule: Q01DX007 (sc), vehicle: steriod suspending solution) 77 % of control; (dose: 250.0 mg/kg/injection, schedule: Q01DX007 (sc), vehicle: steriod suspending solution) 101 % of control; (dose: 500.0 mg/kg/injection, schedule: Q01DX007 (sc), vehicle: steriod suspending solution) 121 % of control; (dose: 1000.0 mg/kg/injection, schedule: Q01DX007 (sc), vehicle: steriod suspending solution) 62 % of control.

Consider `C=CC1CN2CCC1CC2C(O)c1ccnc2ccc(OC)cc12` (stereo not given), for which the T/C reads like this: (dose: 30.16 mg/kg/injection, schedule: Q01DX007 (ip), vehicle: other) 96 % of control; (dose: 31.25 mg/kg/injection, schedule: Q#A X014 (ip), vehicle: carboxymethylcellulose (CMC)) 101 % of control; (dose: 47.12 mg/kg/injection, schedule: Q01DX007 (ip), vehicle: carboxymethylcellulose (CMC)) 92 % of control; (dose: 56.25 mg/kg/injection, schedule: Q01DX007 (ip), vehicle: carboxymethylcellulose (CMC)) 89 % of control; (dose: 60.32 mg/kg/injection, schedule: Q01DX007 (ip), vehicle: other) 75 % of control; (dose: 62.5 mg/kg/injection, schedule: Q#A X014 (ip), vehicle: carboxymethylcellulose (CMC)) 120 % of control. Besides, the T/C was 93 % of control (dose: 94.25 mg/kg/injection, schedule: Q01DX007 (ip), vehicle: carboxymethylcellulose (CMC)); 80 % of control (dose: 112.5 mg/kg/injection, schedule: Q01DX007 (ip), vehicle: carboxymethylcellulose (CMC)); 99 % of control (dose: 120.65 mg/kg/injection, schedule: Q01DX007 (ip), vehicle: other); 121 % of control (dose: 125.0 mg/kg/injection, schedule: Q#A X014 (ip), vehicle: carboxymethylcellulose (CMC)); 78 % of control (dose: 188.5 mg/kg/injection, schedule: Q01DX007 (ip), vehicle: carboxymethylcellulose (CMC)); 118 % of control (dose: 225.0 mg/kg/injection, schedule: Q01DX007 (ip), vehicle: carboxymethylcellulose (CMC)). The T/C reads like this: (dose: 241.3 mg/kg/injection, schedule: Q01DX007 (ip), vehicle: other) 97 % of control; (dose: 250.0 mg/kg/injection, schedule: Q#A X014 (ip), vehicle: carboxymethylcellulose (CMC)) 50 % of control.

For `CC(=O)C(CCC(=O)O)(CCC(=O)O)c1ccccc1`, the T/C by setting is: (dose: 15.0 mg/kg/injection, schedule: Q#A X014 (ip), vehicle: other) 83 % of control; (dose: 30.0 mg/kg/injection, schedule: Q#A X014 (ip), vehicle: other) 106 % of control; (dose: 60.0 mg/kg/injection, schedule: Q#A X014 (ip), vehicle: other) 98 % of control; (dose: 120.0 mg/kg/injection, schedule: Q#A X014 (ip), vehicle: other) 112 % of control.

As to `CCCCSc1nc(N)nc2nc[nH]c12`, the T/C is, setting by setting: (dose: 18.75 mg/kg/injection, schedule: Q#A X014 (ip), vehicle: methylcellulose (MC)) 89 % of control; (dose: 37.5 mg/kg/injection, schedule: Q#A X014 (ip), vehicle: methylcellulose (MC)) 78 % of control; (dose: 75.0 mg/kg/injection, schedule: Q#A X014 (ip), vehicle: methylcellulose (MC)) 102 % of control; (dose: 150.0 mg/kg/injection, schedule: Q#A X014 (ip), vehicle: methylcellulose (MC)) 59 % of control.

For `COc1cc2c3c(c4ccc(OC)c(OC)c4c2cc1OC)CN1CCC[C@@H]1C3`, the T/C (dose: 12.0 mg/kg/injection, schedule: Q01DX007 (ip), vehicle: water) was 21 % of control.
